Data: patent US10239869B2, “Sulfonamide compounds as voltage-gated sodium channel modulators” (LUPIN LIMITED, priority 2015, dated 2019)
Like-named read-outs stand apart in the source and are kept apart here.

Legend:
Nav 1.7 = Nav 1.7 (Homo sapiens (Human), UniProt Q15858); assay: Inhibition of sodium channels, Red Membrane Potential Dye FLIPR assay, veratridine depolarization; format: cell-based; conditions: HEK-293 cells overexpressing the channel; for IC50: read-out: Nav1.7 IC50
Nav 1.5 = Nav 1.5 (Homo sapiens (Human), UniProt Q14524); assay: as above; format: cell-based; conditions: HEK-293 cells overexpressing the channel
[1] = read-out: Nav1.5 IC50 (bound given in μM)

Nav 1.7, sequence (Q15858 whole entry): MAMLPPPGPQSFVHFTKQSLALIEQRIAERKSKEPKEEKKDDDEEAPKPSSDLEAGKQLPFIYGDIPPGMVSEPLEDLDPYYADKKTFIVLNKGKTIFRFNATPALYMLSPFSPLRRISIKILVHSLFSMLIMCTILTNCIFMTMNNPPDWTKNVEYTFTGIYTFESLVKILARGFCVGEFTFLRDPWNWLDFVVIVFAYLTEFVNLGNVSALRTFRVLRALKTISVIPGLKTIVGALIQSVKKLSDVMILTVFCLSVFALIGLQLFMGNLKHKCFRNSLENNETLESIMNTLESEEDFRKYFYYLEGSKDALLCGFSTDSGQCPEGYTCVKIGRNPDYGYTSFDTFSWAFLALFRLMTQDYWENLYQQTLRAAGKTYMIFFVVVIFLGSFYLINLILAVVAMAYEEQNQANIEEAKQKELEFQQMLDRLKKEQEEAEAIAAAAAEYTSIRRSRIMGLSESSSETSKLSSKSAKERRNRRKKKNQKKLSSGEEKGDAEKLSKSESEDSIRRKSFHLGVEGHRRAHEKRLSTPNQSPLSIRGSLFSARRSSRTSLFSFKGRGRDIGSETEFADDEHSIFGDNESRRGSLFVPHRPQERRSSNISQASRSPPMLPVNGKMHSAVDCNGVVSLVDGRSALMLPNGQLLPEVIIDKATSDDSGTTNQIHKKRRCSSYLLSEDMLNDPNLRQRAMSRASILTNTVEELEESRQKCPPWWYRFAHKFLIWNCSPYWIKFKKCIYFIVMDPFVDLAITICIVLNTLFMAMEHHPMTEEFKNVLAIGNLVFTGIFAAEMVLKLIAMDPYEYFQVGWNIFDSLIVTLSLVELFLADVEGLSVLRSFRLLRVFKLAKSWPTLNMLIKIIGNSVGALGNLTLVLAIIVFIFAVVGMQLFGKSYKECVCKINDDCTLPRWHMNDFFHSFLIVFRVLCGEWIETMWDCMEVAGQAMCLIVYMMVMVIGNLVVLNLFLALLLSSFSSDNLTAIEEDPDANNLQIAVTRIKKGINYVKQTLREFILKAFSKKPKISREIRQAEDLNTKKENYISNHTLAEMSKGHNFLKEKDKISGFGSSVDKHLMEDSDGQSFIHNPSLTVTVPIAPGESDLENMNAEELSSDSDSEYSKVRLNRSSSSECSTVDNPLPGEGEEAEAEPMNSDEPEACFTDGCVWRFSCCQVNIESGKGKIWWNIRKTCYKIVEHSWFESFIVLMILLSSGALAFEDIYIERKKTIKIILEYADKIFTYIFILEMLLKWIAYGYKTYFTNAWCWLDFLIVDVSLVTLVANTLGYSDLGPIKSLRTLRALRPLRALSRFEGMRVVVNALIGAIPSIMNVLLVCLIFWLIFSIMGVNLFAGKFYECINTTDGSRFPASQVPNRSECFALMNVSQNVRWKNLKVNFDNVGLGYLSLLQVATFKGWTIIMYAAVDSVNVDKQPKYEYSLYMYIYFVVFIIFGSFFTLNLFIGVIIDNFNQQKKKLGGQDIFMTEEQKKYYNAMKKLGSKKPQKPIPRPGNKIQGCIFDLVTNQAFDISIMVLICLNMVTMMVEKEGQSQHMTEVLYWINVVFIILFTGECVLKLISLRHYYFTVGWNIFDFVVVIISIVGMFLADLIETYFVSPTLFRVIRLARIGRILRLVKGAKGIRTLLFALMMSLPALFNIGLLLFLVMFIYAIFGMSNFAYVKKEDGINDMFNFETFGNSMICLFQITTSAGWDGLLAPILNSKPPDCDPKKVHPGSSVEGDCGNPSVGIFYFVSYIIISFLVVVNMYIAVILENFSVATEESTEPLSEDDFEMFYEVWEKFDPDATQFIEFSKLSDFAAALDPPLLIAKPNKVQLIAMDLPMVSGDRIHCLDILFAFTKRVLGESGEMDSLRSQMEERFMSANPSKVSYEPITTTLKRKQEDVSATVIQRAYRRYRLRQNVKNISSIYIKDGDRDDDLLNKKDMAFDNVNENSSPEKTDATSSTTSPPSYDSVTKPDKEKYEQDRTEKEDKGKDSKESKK
Nav 1.5, sequence (Q14524 whole entry): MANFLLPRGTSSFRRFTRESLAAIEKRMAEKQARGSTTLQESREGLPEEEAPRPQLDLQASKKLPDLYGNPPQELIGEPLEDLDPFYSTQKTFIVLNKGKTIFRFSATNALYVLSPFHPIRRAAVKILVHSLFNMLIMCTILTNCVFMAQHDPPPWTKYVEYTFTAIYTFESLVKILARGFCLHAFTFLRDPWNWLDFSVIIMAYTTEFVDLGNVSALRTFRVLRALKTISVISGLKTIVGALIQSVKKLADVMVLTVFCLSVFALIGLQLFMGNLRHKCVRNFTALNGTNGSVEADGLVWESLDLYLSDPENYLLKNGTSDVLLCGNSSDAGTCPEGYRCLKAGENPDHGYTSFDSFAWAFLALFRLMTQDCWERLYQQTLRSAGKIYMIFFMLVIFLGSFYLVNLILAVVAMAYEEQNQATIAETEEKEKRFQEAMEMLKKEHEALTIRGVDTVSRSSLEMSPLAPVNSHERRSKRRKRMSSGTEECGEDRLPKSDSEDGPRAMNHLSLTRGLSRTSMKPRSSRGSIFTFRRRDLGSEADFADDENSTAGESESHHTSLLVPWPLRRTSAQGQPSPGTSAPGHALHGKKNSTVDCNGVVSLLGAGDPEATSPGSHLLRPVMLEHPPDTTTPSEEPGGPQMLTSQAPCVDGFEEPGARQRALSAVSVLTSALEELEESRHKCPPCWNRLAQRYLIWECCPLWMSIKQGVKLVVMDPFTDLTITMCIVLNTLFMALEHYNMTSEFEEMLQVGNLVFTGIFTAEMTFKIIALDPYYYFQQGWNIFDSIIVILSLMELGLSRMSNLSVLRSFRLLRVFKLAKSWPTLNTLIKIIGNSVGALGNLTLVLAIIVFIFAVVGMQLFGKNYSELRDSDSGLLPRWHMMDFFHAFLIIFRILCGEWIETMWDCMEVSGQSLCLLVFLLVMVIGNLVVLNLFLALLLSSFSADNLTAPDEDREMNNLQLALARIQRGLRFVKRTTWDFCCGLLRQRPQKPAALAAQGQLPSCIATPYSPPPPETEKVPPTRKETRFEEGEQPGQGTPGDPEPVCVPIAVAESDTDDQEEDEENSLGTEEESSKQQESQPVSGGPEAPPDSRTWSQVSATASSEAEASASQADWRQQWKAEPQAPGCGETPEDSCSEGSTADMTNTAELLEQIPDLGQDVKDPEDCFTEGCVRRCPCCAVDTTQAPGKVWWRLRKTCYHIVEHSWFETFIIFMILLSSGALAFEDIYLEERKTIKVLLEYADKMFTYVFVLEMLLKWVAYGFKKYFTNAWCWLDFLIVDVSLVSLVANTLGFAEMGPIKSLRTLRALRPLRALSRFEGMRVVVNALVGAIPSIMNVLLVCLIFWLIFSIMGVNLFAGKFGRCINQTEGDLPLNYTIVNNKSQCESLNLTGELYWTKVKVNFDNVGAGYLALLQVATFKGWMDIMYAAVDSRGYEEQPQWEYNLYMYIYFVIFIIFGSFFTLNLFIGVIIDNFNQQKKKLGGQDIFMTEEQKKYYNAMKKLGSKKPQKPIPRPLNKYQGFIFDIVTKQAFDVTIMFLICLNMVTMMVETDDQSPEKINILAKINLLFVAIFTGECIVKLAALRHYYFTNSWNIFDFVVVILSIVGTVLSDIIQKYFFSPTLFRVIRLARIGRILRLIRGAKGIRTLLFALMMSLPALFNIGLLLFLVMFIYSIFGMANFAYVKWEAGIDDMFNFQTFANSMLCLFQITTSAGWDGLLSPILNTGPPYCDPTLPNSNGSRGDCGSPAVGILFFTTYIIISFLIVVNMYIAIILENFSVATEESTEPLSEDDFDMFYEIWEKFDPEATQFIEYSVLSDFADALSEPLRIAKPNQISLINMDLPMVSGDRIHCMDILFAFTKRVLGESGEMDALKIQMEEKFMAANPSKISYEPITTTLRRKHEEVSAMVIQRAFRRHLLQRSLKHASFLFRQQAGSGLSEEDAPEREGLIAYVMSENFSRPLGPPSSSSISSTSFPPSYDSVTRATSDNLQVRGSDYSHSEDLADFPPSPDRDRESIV

For O=S(=O)(Nc1ccncn1)c1ccc2c(c1)OCC[C@H]2c1ccc(C(F)(F)F)cc1-c1ccc(F)cc1 [Example 47, (S&R)-4-(4′-Fluoro-5-(trifluoromethyl)-[1,1′-biphenyl]-2-yl)-N-(pyrimidin-4-yl)chromane-7-sulfonamide], the “Nav1.7 inhibition @ 10 μM” value (Nav 1.7) was 64% and the IC50 (Nav 1.5; [1]) was over 10 µM.

For O=S(=O)(Nc1cccnn1)c1ccc2c(c1)OCCC2c1ccc(C(F)(F)F)cc1-n1ccnn1 (stereo not drawn) [Example 53, (S&R)-4-(2-(1H-1,2,3-Triazol-1-yl)-4-(trifluoromethyl)phenyl)-N-(pyridazin-3-yl)chromane-7-sulfonamide], the “Nav1.7 inhibition @ 10 μM” value (Nav 1.7) was 70% and the “Nav1.5 % inhibition @ 10 μM” value (Nav 1.5) was 44%.

In the case of O=S(=O)(Nc1cccnn1)c1ccc2c(c1)OCC[C@@H]2c1ccc(C(F)(F)F)cc1-n1ccnn1 [Example 54, (S&R)-4-(2-(1H-1,2,3-Triazol-1-yl)-4-(trifluoromethyl)phenyl)-N-(pyridazin-3-yl)chromane-7-sulfonamide], the IC50 (Nav 1.7) is reported as 0.706 µM and the IC50 (Nav 1.5; [1]) is reported as over 10 µM.

Cc1nc(-c2cc(C(F)(F)F)ccc2[C@@H]2CCOc3cc(S(=O)(=O)Nc4cccc(F)n4)ccc32)cs1 [Example 61] gave an IC50 (Nav 1.7) of 0.568 µM and an IC50 (Nav 1.5; [1]) of over 10 µM.

For Cc1nc(-c2cc(C(F)(F)F)ccc2[C@H]2CCOc3cc(S(=O)(=O)Nc4cccc(F)n4)ccc32)cs1 [Example 62], the IC50 (Nav 1.7) was 0.005 µM and the “Nav1.5 % inhibition @ 10 μM” value (Nav 1.5) was 42%.

Work on Cc1nc(-c2cc(C(F)(F)F)ccc2[C@@H]2CCOc3cc(S(=O)(=O)Nc4ncccn4)ccc32)cs1 [Example 63, (S&R)-4-(2-(2-Methylthiazol-4-yl)-4-(trifluoromethyl)phenyl)-N-(pyrimidin-2-yl)chroman-7-sulfonamide] yielded an IC50 (Nav 1.7) of 0.526 µM and an IC50 (Nav 1.5; [1]) of over 10 µM.

In the case of Cc1nc(-c2cc(C(F)(F)F)ccc2[C@H]2CCOc3cc(S(=O)(=O)Nc4ncccn4)ccc32)cs1 [Example 64, (S&R)-4-(2-(2-Methylthiazol-4-yl)-4-(trifluoromethyl)phenyl)-N-(pyrimidin-2-yl)chroman-7-sulfonamide], the IC50 (Nav 1.7) is reported as 0.003 µM and the IC50 (Nav 1.5; [1]) is reported as over 10 µM.

Work on Cc1nc(-c2cc(C(F)(F)F)ccc2[C@@H]2CCOc3cc(S(=O)(=O)Nc4ccncn4)ccc32)cs1 [Example 67, (S&R)-4-(2-(2-Methylthiazol-4-yl)-4-(trifluoromethyl)phenyl)-N-(pyrimidin-4-yl)chroman-7-sulfonamide] yielded an IC50 (Nav 1.7) of 0.03 µM and an IC50 (Nav 1.5; [1]) of over 10 µM.

Cc1nc(-c2cc(C(F)(F)F)ccc2[C@H]2CCOc3cc(S(=O)(=O)Nc4ccncn4)ccc32)cs1 [Example 68, (S&R)-4-(2-(2-Methylthiazol-4-yl)-4-(trifluoromethyl)phenyl)-N-(pyrimidin-4-yl)chroman-7-sulfonamide] was tested, and the IC50 (Nav 1.7) was 0.0009 µM and the “Nav1.5 % inhibition @ 10 μM” value (Nav 1.5) was 29%.

Cc1nc(-c2cc(C(F)(F)F)ccc2[C@H]2CCOc3cc(S(=O)(=O)Nc4cccnn4)ccc32)cs1 [Example 70, (S&R)-4-(2-(2-Methylthiazol-4-yl)-4-(trifluoromethyl)phenyl)-N-(pyridazin-3-yl)chroman-7-sulfonamide] showed an IC50 (Nav 1.7) of 0.115 µM and an IC50 (Nav 1.5; [1]) of over 10 µM.

Molecule Cc1nc(-c2cc(C(F)(F)F)ccc2[C@@H]2CCOc3cc(S(=O)(=O)Nc4cccnn4)ccc32)co1 [Example 79, (S&R)-4-(2-(2-methyloxazol-4-yl)-4-(trifluoromethyl)phenyl)-N-(pyridazin-3-yl)chroman-7-sulfonamide] has an IC50 (Nav 1.7) of 2.52 µM and an IC50 (Nav 1.5; [1]) of over 10 µM.

Cc1nc(-c2cc(C(F)(F)F)ccc2[C@H]2CCOc3cc(S(=O)(=O)Nc4cccnn4)ccc32)co1 [Example 80, (S&R)-4-(2-(2-methyloxazol-4-yl)-4-(trifluoromethyl)phenyl)-N-(pyridazin-3-yl)chroman-7-sulfonamide] was tested, and the IC50 (Nav 1.7) was 0.114 µM and the “Nav1.5 % inhibition @ 10 μM” value (Nav 1.5) was 53%.

For CS(=O)(=O)CCc1cc(C(F)(F)F)ccc1[C@@H]1CCOc2cc(S(=O)(=O)Nc3cccc(F)n3)ccc21 [Example 81, (S&R)—N-(6-Fluoropyridin-2-yl)-4-(2-(2-(methylsulfonyl)ethyl)-4-(trifluoromethyl)phenyl)chroman-7-sulfonamide], the IC50 (Nav 1.7) was 0.993 µM and the “Nav1.5 % inhibition @ 10 μM” value (Nav 1.5) was 34%.

In the case of CS(=O)(=O)CCc1cc(C(F)(F)F)ccc1[C@H]1CCOc2cc(S(=O)(=O)Nc3cccc(F)n3)ccc21 [Example 82, (S&R)—N-(6-Fluoropyridin-2-yl)-4-(2-(2-(methylsulfonyl)ethyl)-4-(trifluoromethyl)phenyl)chroman-7-sulfonamide], the IC50 (Nav 1.7) is reported as 0.02 µM and the IC50 (Nav 1.5; [1]) is reported as over 10 µM.

In the case of CS(=O)(=O)CCc1cc(C(F)(F)F)ccc1[C@@H]1CCOc2cc(S(=O)(=O)Nc3ncccn3)ccc21 [Example 83, (S&R)-4-(2-(2-(Methylsulfonyl)ethyl)-4-(trifluoromethyl)phenyl)-N-(pyrimidin-2-yl)chroman-7-sulfonamide], the “Nav1.7 inhibition @ 10 μM” value (Nav 1.7) is reported as 71% and the IC50 (Nav 1.5; [1]) is reported as over 10 µM.

CS(=O)(=O)CCc1cc(C(F)(F)F)ccc1[C@H]1CCOc2cc(S(=O)(=O)Nc3ncccn3)ccc21 [Example 84, (S&R)-4-(2-(2-(Methylsulfonyl)ethyl)-4-(trifluoromethyl)phenyl)-N-(pyrimidin-2-yl)chroman-7-sulfonamide] showed an IC50 (Nav 1.7) of 2.58 µM and an IC50 (Nav 1.5; [1]) of over 10 µM.

Work on CS(=O)(=O)CCc1cc(C(F)(F)F)ccc1[C@@H]1CCOc2cc(S(=O)(=O)Nc3ncc(F)cn3)ccc21 [Example 85, (S&R)—N-(5-Fluoropyrimidin-2-yl)-4-(2-(2-(methylsulfonyl)ethyl)-4-(trifluoromethyl)phenyl)chroman-7-sulfonamide] yielded an IC50 (Nav 1.7) of 2.72 µM and an IC50 (Nav 1.5; [1]) of over 10 µM.

In the case of CS(=O)(=O)CCc1cc(C(F)(F)F)ccc1[C@H]1CCOc2cc(S(=O)(=O)Nc3ncc(F)cn3)ccc21 [Example 86, (S&R)—N-(5-Fluoropyrimidin-2-yl)-4-(2-(2-(methylsulfonyl)ethyl)-4-(trifluoromethyl)phenyl)chroman-7-sulfonamide], the IC50 (Nav 1.7) is reported as 2.39 µM and the IC50 (Nav 1.5; [1]) is reported as over 10 µM.

CS(=O)(=O)CCc1cc(C(F)(F)F)ccc1[C@@H]1CCOc2cc(S(=O)(=O)Nc3ccncn3)ccc21 [Example 87, (S&R)-4-(2-(2-(Methylsulfonyl)ethyl)-4-(trifluoromethyl)phenyl)-N-(pyrimidin-4-yl) chroman-7-sulfonamide] was tested, and the “Nav1.7 inhibition @ 10 μM” value (Nav 1.7) was 58% and the IC50 (Nav 1.5; [1]) was over 10 µM.

For CS(=O)(=O)CCc1cc(C(F)(F)F)ccc1[C@H]1CCOc2cc(S(=O)(=O)Nc3ccncn3)ccc21 [Example 88, (S&R)-4-(2-(2-(Methylsulfonyl)ethyl)-4-(trifluoromethyl)phenyl)-N-(pyrimidin-4-yl) chroman-7-sulfonamide], the IC50 (Nav 1.7) was 0.626 µM and the IC50 (Nav 1.5; [1]) was over 10 µM.

O=S(=O)(Nc1cccc(F)n1)c1ccc2c(c1)OCC[C@H]2c1ccc(C(F)(F)F)cc1-n1cccn1 [Example 89, (S&R)-4-(2-(1H-pyrazol-1-yl)-4-(trifluoromethyl)phenyl)-N-(6-fluoropyridin-2-yl)chroman-7-sulfonamide] showed an IC50 (Nav 1.7) of 0.108 µM and an IC50 (Nav 1.5; [1]) of over 10 µM.

Work on O=S(=O)(Nc1cccc(F)n1)c1ccc2c(c1)OCC[C@@H]2c1ccc(C(F)(F)F)cc1-n1cccn1 [Example 90, (S&R)-4-(2-(1H-pyrazol-1-yl)-4-(trifluoromethyl)phenyl)-N-(6-fluoropyridin-2-yl)chroman-7-sulfonamide] yielded an IC50 (Nav 1.7) of 0.015 µM and an IC50 (Nav 1.5; [1]) of over 10 µM.

With CC(C)Oc1ccc(-c2cc(C(F)(F)F)ccc2[C@@H]2CCOc3cc(S(=O)(=O)Nc4ncccn4)ccc32)cn1 [Example 97, (S&R)-4-(2-(6-isopropoxypyridin-3-yl)-4-(trifluoromethyl)phenyl)-N-(pyrimidin-2-yl)chroman-7-sulfonamide] the IC50 (Nav 1.7) was 0.17 µM and the “Nav1.5 % inhibition @ 10 μM” value (Nav 1.5) was 71%.

With CC(C)Oc1ccc(-c2cc(C(F)(F)F)ccc2[C@H]2CCOc3cc(S(=O)(=O)Nc4ncccn4)ccc32)cn1 [Example 98, (S&R)-4-(2-(6-isopropoxypyridin-3-yl)-4-(trifluoromethyl)phenyl)-N-(pyrimidin-2-yl)chroman-7-sulfonamide] the IC50 (Nav 1.7) was 0.011 µM and the IC50 (Nav 1.5; read-out: Nav1.5 IC50) was 0.432 µM.

CC(C)Oc1ccc(-c2cc(C(F)(F)F)ccc2[C@@H]2CCOc3cc(S(=O)(=O)Nc4ncc(F)cn4)ccc32)cn1 [Example 99, (S&R)—N-(5-fluoropyrimidin-2-yl)-4-(2-(6-isopropoxypyridin-3-yl)-4-(trifluoromethyl)phenyl)chroman-7-sulfonamide] was tested, and the IC50 (Nav 1.7) was 1.06 µM and the “Nav1.5 % inhibition @ 10 μM” value (Nav 1.5) was 80%.

CC(C)Oc1ccc(-c2cc(C(F)(F)F)ccc2[C@H]2CCOc3cc(S(=O)(=O)Nc4ncc(F)cn4)ccc32)cn1 [Example 100, (S&R)—N-(5-fluoropyrimidin-2-yl)-4-(2-(6-isopropoxypyridin-3-yl)-4-(trifluoromethyl)phenyl)chroman-7-sulfonamide] showed an IC50 (Nav 1.7) of 0.075 µM and an IC50 (Nav 1.5; [1]) of over 10 µM.

In the case of CCOc1ccc(-c2cc(C(F)(F)F)ccc2[C@@H]2CCOc3cc(S(=O)(=O)Nc4ncc(F)cn4)ccc32)cn1 [Example 101, (S&R)-4-(2-(6-ethoxypyridin-3-yl)-4-(trifluoromethyl)phenyl)-N-(5-fluoropyrimidin-2-yl)chroman-7-sulfonamide], the IC50 (Nav 1.7) is reported as 2.59 µM and the “Nav1.5 % inhibition @ 10 μM” value (Nav 1.5) is reported as 51%.

Work on CCOc1ccc(-c2cc(C(F)(F)F)ccc2[C@H]2CCOc3cc(S(=O)(=O)Nc4ncc(F)cn4)ccc32)cn1 [Example 102, (S&R)-4-(2-(6-ethoxypyridin-3-yl)-4-(trifluoromethyl)phenyl)-N-(5-fluoropyrimidin-2-yl)chroman-7-sulfonamide] yielded an IC50 (Nav 1.7) of 0.039 µM and an IC50 (Nav 1.5; [1]) of over 10 µM.

For O=S(=O)(Nc1ncccn1)c1ccc2c(c1)OCC[C@H]2c1ccc(C(F)(F)F)cc1C1CCOCC1 [Example 109, (S&R)—N-(pyrimidin-2-yl)-4-(2-(tetrahydro-2H-pyran-4-yl)-4-(trifluoromethyl)phenyl)chroman-7-sulfonamide], the IC50 (Nav 1.7) was 0.74 µM and the IC50 (Nav 1.5; [1]) was over 10 µM.

With O=S(=O)(Nc1ncccn1)c1ccc2c(c1)OCC[C@@H]2c1ccc(C(F)(F)F)cc1C1CCOCC1 [Example 110, (S&R)—N-(pyrimidin-2-yl)-4-(2-(tetrahydro-2H-pyran-4-yl)-4-(trifluoromethyl)phenyl)chroman-7-sulfonamide] the IC50 (Nav 1.7) was 0.156 µM and the IC50 (Nav 1.5; read-out: Nav1.5 IC50) was 1.75 µM.
